Experiment [1] deals with rice seed variety CL 151. Put plainly: Greenhouse trial of zinc-treated rice seed in Zn deficient soil mix: germination rate. Format: in vivo. Particulars: plus insecticide/fungicide mixture, Zn deficient potting mix 1.97 ppm Zn.
Excerpt: (§1) For the inventive composition, ZnEDTA (in the form of Dissolvine E-Zn-15 having 3% free zinc, Akzo Nobel, IL., USA) was applied as a 20% w/w aqueous solution at rates of 1.18 1.47 and 1.76 g ZnEDTA/kg seed. This was accomplished by using 8, 10 or 12 fl oz per cwt.
(§2) For the first comparative composition, ZnSO4 was applied as a 24.7% solution at a rate of 1.90 g ZnSO4/kg seed (in the form of ZINC PLUS having 10% free zinc, DeltAg, MS, USA). This was accomplished by using 10 fl oz per cwt.
(§3) For the second comparative composition, ZnO was applied as a 32.50% aqueous suspension at a rate of 2.00 g ZnO/kg seed (in the form of ZINCHE ST having 26% free zinc, Drexel Chemical Co, TN, USA). This was accomplished by using 8 fl oz per cwt.
(§4) This was done by preparing a mixture of each zinc-containing compound with the insecticide/fungicide mixture and adding water to make a total of 25 fl oz per ctw (thiamethoxam at 1.80 g/kg seed, fludioxonil at 0.015 g/kg seed, azoxystrobin at 0.07 g/kg seed, metalaxyl-M at 0.09 g/kg seed and sedaxane at 0.01 g/kg seed; commercial products available as e.g. CRUISER MAXX and VIBRANCE, both Syngenta Crop Protection, NC, USA). Also evaluated were untreated control and seeds having only the conventional insecticide and fungicide treatment.
(§5) For all test groups, one (1) kg batches of rice seed variety CL 151 (Clearfield Seed, Horizon Ag, TN, USA) were treated on a Hege seed treater (Wintersteiger AG, Austria) using a standard protocol. The seeds were allowed to dry.
Standard commercial greenhouse containers, 10 cm diameter by 9 cm deep, were filled with 350 cc of a rooting media mix consisting of 33% (v/v) Zn deficient soil collected in Arkansas, USA and then sterilized in an autoclave and 66% (v/v) commercial planting mix (NB peat, Fafard, MA, USA). Analysis of the potting mix confirmed that the zinc levels were low, at 1.97 ppm and pH levels were <7. […]
Ten days after planting (10 DAP) a drip irrigation emitter was installed on each pot. […] Germination rates were recorded and at 11 DAP rice seedlings were thinned to 5 plants per pot. […]
In experiment [2] the test system is rice seed variety CL 151. Put plainly: Greenhouse trial of zinc-treated rice seed in Zn deficient soil mix: total zinc uptake in dry above ground plant tissue. Format: in vivo. The note with it: dry above ground tissue harvested 29 DAP, plus insecticide/fungicide mixture.
Excerpt: as §1, §2, §3, §4, §5
Standard commercial greenhouse containers, 10 cm diameter by 9 cm deep, were filled with 350 cc of a rooting media mix consisting of 33% (v/v) Zn deficient soil collected in Arkansas, USA and then sterilized in an autoclave and 66% (v/v) commercial planting mix (NB peat, Fafard, MA, USA). Analysis of the potting mix confirmed that the zinc levels were low, at 1.97 ppm and pH levels were <7.
Prior to planting the soil was moistened with 200 ml tap water per pot. Eight seeds were sown per pot by placing them on soil surface then lightly covering with 0.5 cm of loose peat. […] Pots were transferred to greenhouse and maintained at 30/24° C. day/night temperature with 16 hours of supplemental high pressure sodium light. All pots were lightly watered manually every 2 to 3 days to prevent dehydration of the germination zone.
Ten days after planting (10 DAP) a drip irrigation emitter was installed on each pot. The irrigation system was set to deliver 100 ml of tap water each morning and again each evening. Germination rates were recorded and at 11 DAP rice seedlings were thinned to 5 plants per pot. By 17 DAP rice plants were in the V3 growth stage. At 18 DAP nitrogen fertilizer (urea) was added to the irrigation water at 200 ppm for the duration of trial. At 22 DAP rice plants were in the V4 growth stage with first tiller forming.
At 29 DAP rice plants were in the V5 growth stage with 3 tillers. The above ground plant tissue was harvested and placed in paper bags. Bags were placed in an oven set at 100° C. for 72 hours to dry. The dry tissue was removed from the bags and weighed. Samples of the dry tissue were analyzed for total zinc uptake (MicroMacro International, Inc. Labs, GA, USA).
In experiment [3] the test system is rice seed. Particulars: 1.4 g ZnEDTA/kg rice seed; cited from earlier work.

Molecules are shown by their SMILES.

As to `[O]=[Zn]` [ZnO, Zinc oxide, reference compound], the “Germination rate (%)” value in experiment [1] (2.00 g Zn complex/kg seed) came out at 42%. Also, in experiment [2] (2.00 g Zn complex/kg seed), the “Zinc uptake (ppm)” value came out at 253.65 ppm.

`O=S(=O)([O-])[O-].[Zn+2]` [ZnSO4, Zinc sulfate, reference compound]: the “Germination rate (%)” value in experiment [1] (1.90 g Zn complex/kg seed) is 43%. Also, the “Zinc uptake (ppm)” value in experiment [2] (1.90 g Zn complex/kg seed) amounted to 237.50 ppm.

In the case of `O=C(O)CN(CCN(CC(=O)O)CC(=O)O)CC(=O)O.[Zn]` [ZnEDTA, zinc ethylenediaminetetraacetic acid], in experiment [1] (1.47 g Zn complex/kg seed), the “Germination rate (%)” value is 45%. Also, in experiment [3], the “Outcome of rice seed treatment” value was “not successful”. The “Zinc uptake (ppm)” value in experiment [2] (1.18 g Zn complex/kg seed) is reported as 275.47 ppm; in experiment [2] (1.47 g Zn complex/kg seed), 304.74 ppm; in experiment [2] (1.76 g Zn complex/kg seed) it was 316.00 ppm.

The values above are taken from US20150282486A1, “RICE SEED TREATMENT COMPOSITION” (SYNGENTA PARTICIPATIONS AG, priority 2014, published 2015).
